Results from patent publication US6737383B1, “Herbicidal oxadiazolidines” (priority 1999, dated 2004).

Experiments:
[1] = tested on: winter wheat; assay: Test E winter wheat; type: in vivo, Triticum aestivum; settings: Preemergence
[2] = tested on: rape; assay: Test B pre/postemergence rape; type: in vivo, Brassica napus
Outline: (§1)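 Response is a visual 0-to-10 score relative to untreated plants, where 0 means no effect and 10 means complete control, taken twelve to sixteen days after application. Treatments went onto soil at planting and onto foliage of 1- to 4-leaf plants, using a surfactant-containing non-phytotoxic solvent.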

[3] = tested on: pigweed; assay: Test B pre/postemergence pigweed; type: in vivo, Amaranthus retroflexus
Outline: as §1

[4] = tested on: wild oat; assay: Test E wild oat; type: in vivo, Avena fatua; settings: Preemergence
[5] = tested on: winter barley; assay: Test E winter barley; type: in vivo, Hordeum vulgare; settings: Preemergence
[6] = tested on: Italian ryegrass; assay: Test E Italian ryegrass; type: in vivo, Lolium multiflorum; settings: Preemergence
[7] = tested on: blackgrass; assay: Test E blackgrass; type: in vivo, Alopecurus myosuroides; settings: Preemergence
[8] = tested on: sugar beet; assay: Test B pre/postemergence sugar beet; type: in vivo, Beta vulgaris
Outline: as §1

[9] = tested on: winter wheat; assay: Test E winter wheat; type: in vivo, Triticum aestivum; settings: Postemergence; for Plant response rating, Wheat (winter): 0 to 100 scale, 0 is no effect, 100 is complete control
Outline: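 Greenhouse-grown plants are treated (postemergence: 1- to 4-leaf stage, sandy loam/potting mix 60:40), then evaluated visually versus untreated controls some 21 to 28 days later.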

[10] = tested on: green foxtail; assay: Test E green foxtail; type: in vivo, Setaria viridis; settings: Preemergence
[11] = Rate 125 g/ha, 0 to 100 scale (0 no effect, 100 complete control)
[12] = Rate 500 g/ha, 0 to 100 scale where 0 is no effect and 100 is complete control
[13] = Preemergence, Rate 62 g/ha, scale of 0 to 10 where 0 is no effect and 10 is complete control
[14] = Preemergence, Rate 250 g/ha, scale of 0 to 10 where 0 is no effect and 10 is complete control
[15] = Preemergence, Rate 500 g/ha, scale of 0 to 10 where 0 is no effect and 10 is complete control
[16] = Rate 62 g/ha, Postemergence, scale of 0 to 10 where 0 is no effect and 10 is complete control
[17] = Rate 125 g/ha, Postemergence, scale 0 to 10
[18] = Rate 125 g/ha, Preemergence, scale of 0 to 10 where 0 is no effect and 10 is complete control
[19] = Rate 500 g/ha, Postemergence, scale 0 to 10

For CC(C)N(C(=O)n1oc(=O)n(CCC(F)=C(F)F)c1=O)c1ccc(F)cc1 [Compound 218], the “Plant response rating, Wheat (winter)” value [1, 11] was 50, the “Wheat (winter) plant response rating (0 to 100 scale)” value ([1]; Rate 250 g/ha) was 40 and the “Plant response rating, Wheat (winter)” value [1, 12] was 50. For the same molecule, the “Rape plant response rating” value [2, 13] was 0, the “Rape plant response rating” value [2, 14] was 0 and the “Plant response rating, Rape” value [2, 15] was 2. The “Rape plant response rating” value [2, 16] was 0, the “Rape plant response rating” value [2, 17] was 1 and the “Rape plant response rating” value [2, 18] was 0. The “Plant response rating (0 to 10; 0 is no effect, 10 is complete control), Rape” value ([2]; Rate 250 g/ha, Postemergence) was 6, the “Rape plant response rating” value [2, 19] was 7 and the “Redroot pigweed plant response rating” value [3, 13] was 6. The “Redroot pigweed plant response rating” value [3, 14] was 8, the “Plant response rating, Redroot pigweed” value [3, 15] was 10 and the “Redroot pigweed plant response rating” value [3, 16] was 0. For the same molecule, the “Redroot pigweed plant response rating” value [3, 17] was 1, the “Redroot pigweed plant response rating” value [3, 18] was 1 and the “Plant response rating (0 to 10; 0 is no effect, 10 is complete control), Redroot pigweed” value ([3]; Rate 250 g/ha, Postemergence) was 3. For the same molecule, the “Redroot pigweed plant response rating” value [3, 19] was 7, the “Plant response rating, Wild oat” value [4, 11] was 70 and the “Wild oat plant response rating (0 to 100 scale)” value ([4]; Rate 250 g/ha) was 65. For the same molecule, the “Plant response rating, Wild oat” value [4, 12] was 70, the “Plant response rating, Barley (winter)” value [5, 11] was 40 and the “Barley (winter) plant response rating (0 to 100 scale)” value ([5]; Rate 250 g/ha) was 50. The “Plant response rating, Barley (winter)” value [5, 12] was 65, the “Plant response rating, I. Ryegrass” value [6, 11] was 55 and the “I. Ryegrass plant response rating (0 to 100 scale)” value ([6]; Rate 250 g/ha) was 60. For the same molecule, the “Plant response rating, I. Ryegrass” value [6, 12] was 70, the “Plant response rating, Blackgrass” value [7, 11] was 65 and the “Blackgrass plant response rating (0 to 100 scale)” value ([7]; Rate 250 g/ha) was 70. For the same molecule, the “Plant response rating, Blackgrass” value [7, 12] was 100, the “Sugarbeets plant response rating” value [8, 13] was 0 and the “Sugarbeets plant response rating” value [8, 14] was 6. The “Plant response rating, Sugarbeets” value [8, 15] was 7, the “Sugarbeets plant response rating” value [8, 16] was 2 and the “Sugarbeets plant response rating” value [8, 17] was 2. The “Sugarbeets plant response rating” value [8, 18] was 1, the “Plant response rating (0 to 10; 0 is no effect, 10 is complete control), Sugarbeets” value ([8]; Rate 250 g/ha, Postemergence) was 2 and the “Sugarbeets plant response rating” value [8, 19] was 4. For the same molecule, the “Plant response rating, Wheat (winter)” value ([9]; Rate 125 g/ha) was 65, the “Wheat (winter) plant response rating” value ([9]; Rate 250 g/ha, 0 to 100 scale where 0 is no effect and 100 is complete control) was 70 and the “Plant response rating, Wheat (winter)” value ([9]; Rate 500 g/ha) was 85. The “Plant response rating, Green foxtail” value [10, 11] was 30, the “Green foxtail plant response rating (0 to 100 scale)” value ([10]; Rate 250 g/ha) was 55 and the “Plant response rating, Green foxtail” value [10, 12] was 85.
